Where two headings read alike, the source gives them in different places.
What was measured:
[1] = system: A2780 cells; set-up: method as in doi:10.1016/j.ica.2016.11.021; details: cited from earlier work
[2] = system: human lymphocytes; set-up: method as in doi:10.1016/j.ica.2016.11.021; details: MTT, 72 h, reposted from previous paper; cited from earlier work
[3] = system: Toledo-cis cells; set-up: method as in doi:10.1016/j.ica.2016.11.021; details: MTT, 72 h, reposted from previous paper; cited from earlier work
[4] = system: human lymphocytes; test: MTT cellular viability assay, normal lymphocytes; format: cell-based; details: for times less toxic for normal lymphocytes in comparison to cisplatin: relative to cisplatin; for IC50: Lymphocytes, MTT, 72 h
Procedure: The buffy coat fraction of peripheral blood from healthy donors was purchased from the Regional Blood Bank in Lodz, Poland. Mononuclear blood cells were isolated using Lympho-Sep tubes (Biological Industries, Israel). Lymphocytes were cultured in RPMI-1640 medium (Biological Industries, Israel) supplemented with 10% heat-inactivated fetal bovine serum, phytohemaglutinin M solution (PHA-M, Biological Industries), 5 mM Hepes, and 50 µg/mL gentamycin. The cancer cells were seeded in 24-well plates, with 1 mL of cell suspension per well, in the following densities: A2780—10^4 cells/mL; […] Lymphocytes were seeded in 48-well plates, 0.5 mL of cell suspension per well, at −2 × 10^5 cells/mL. The cultures were left overnight to adapt. The next day, the tested compounds were added, pre-dissolved in DMF, and then in a complete culture medium, at concentrations two-fold higher than the final ones. The resulting solutions were added to cell cultures to obtain the demanded concentration. Stock solutions of the compounds were freshly made before every experiment. The final concentration of the solvents in culture medium was 0.2% v/v. […] Then the culture medium was removed, and the purple formazan crystals were dissolved in DMSO. The absorbance was measured at 540 nm on a Spectrostar Nano spectrophotometer with a microplate reader (BMG Labtech, Ortenberg, Germany). The experiments were performed at least in triplicate. The results were transformed to relative values, as the percentage of the solvent control (assumed as 100%) to subtract any toxic effect of DMF.

[5] = system: Toledo-cis cells; test: MTT cellular viability assay, Toledo-cis; format: cell-based, human; details: for RF (IC50 Toledo-cis/IC50 Toledo): Resistance factor defined as IC50(resistant)/IC50(sensitive); for IC50: Toledo-cis, MTT, 72 h
Procedure: (§1) Cell lines A2780 (human ovarian carcinoma, ECACC cat. No. 93112519), A2780cis (subline resistant to cisplatin, ECACC cat. […] All cell lines were maintained in a humidified incubator, at 37 °C and 5% CO2. The cell lines A2780 and A2780cis were grown as monolayers, and cultures were detached with trypsin and renewed every 3–4 days. Toledo and Toledo-cis were grown in suspension; the cultures were renewed every 3–4 days. The Toledo cell line was kindly provided by Prof. […] The cancer cells were seeded in 24-well plates, with 1 mL of cell suspension per well, in the following densities: A2780—10^4 cells/mL; […] Lymphocytes were seeded in 48-well plates, 0.5 mL of cell suspension per well, at −2 × 10^5 cells/mL. The cultures were left overnight to adapt. The next day, the tested compounds were added, pre-dissolved in DMF, and then in a complete culture medium, at concentrations two-fold higher than the final ones. The resulting solutions were added to cell cultures to obtain the demanded concentration. Stock solutions of the compounds were freshly made before every experiment. The final concentration of the solvents in culture medium was 0.2% v/v. […] Then the culture medium was removed, and the purple formazan crystals were dissolved in DMSO. The absorbance was measured at 540 nm on a Spectrostar Nano spectrophotometer with a microplate reader (BMG Labtech, Ortenberg, Germany). The experiments were performed at least in triplicate. The results were transformed to relative values, as the percentage of the solvent control (assumed as 100%) to subtract any toxic effect of DMF.

[6] = system: Toledo cells; set-up: method as in doi:10.1016/j.ica.2016.11.021; details: cited from earlier work
[7] = system: A2780cis cells; set-up: method as in doi:10.1016/j.ica.2016.11.021; details: MTT, 72 h, reposted from previous paper; cited from earlier work
[8] = system: A2780cis cells; test: MTT cellular viability assay, A2780cis; format: cell-based, human; details: for RF (IC50 A2780cis/IC50 A2780): Resistance factor defined as IC50(resistant)/IC50(sensitive); for IC50: A2780cis, MTT, 72 h
Procedure: as §1

[9] = system: A2780 and A2780cis cells; test: Annexin V apoptosis assay (flow cytometry); format: cell-based, human; details: 2 h and 4 h incubation, compared to untreated cells
Procedure: The apoptotic cells were identified by flow cytometry using the Annexin-V/FITC (BDBiosciences, San Diego, CA, USA) assay according to the manufacturer’s instructions. […] PI only stains the nuclei of damaged cells with permeable plasma membranes. Briefly, the cells were incubated with tested compounds for 2 and 4 h. After incubation, the cells were washed twice with cold PBS and then resuspended in 100 μL of binding buffer, containing 2 μL of FITC conjugated annexin-V and 10 μg mL^−1 of PI (Becton-Dickinson, San Jose, CA, USA). Then, the preparations were incubated at room temperature, protected from light, for 15 min. Fluorescence was measured immediately after staining by flow cytometry using FL1 (green, annexin-V) and FL3 (red, PI) standard fluorescent filters.

[10] = system: A2780 and A2780cis cells; test: Mitochondrial potential loss measurement (MitoTracker Red, flow cytometry); format: cell-based, human; details: 2 h and 4 h incubation
Procedure: The loss of mitochondrial transmembrane potential (ΔΨm) occurs early during apoptosis and is often considered as a marker of apoptosis activated by the mitochondrial pathway. MitoTracker Red (Invitrogen, Waltham, MA, USA) dye was used as a probe for ΔΨm, which accumulates in the active mitochondria of living cells: 50 nM, 20 min incubation, at RT. The reduction of Δ Ψm was detected by flow cytometry as a decrease in red fluorescence of the dye in treated cells as compared to untreated cells.

[11] = system: A2780 cells; test: MTT cellular viability assay, A2780; format: cell-based, human; details: 72 h
Procedure: (§2) Cell lines A2780 (human ovarian carcinoma, ECACC cat. No. 93112519), A2780cis (subline resistant to cisplatin, ECACC cat. No. 93112517), Toledo (human diffuse large cell lymphoma, ATCC CRL-2631TM), and Toledo-cis (cisplatin-resistant subline obtained from Toledo in our laboratory) were cultured in RPMI-1640 medium (Biological Industries, Kibbutz Beit-Haemek, Israel) supplemented with 10% heat-inactivated fetal bovine serum, 5 mM Hepes, and 50 µg/mL gentamycin. All cell lines were maintained in a humidified incubator, at 37 °C and 5% CO2. The cell lines A2780 and A2780cis were grown as monolayers, and cultures were detached with trypsin and renewed every 3–4 days. Toledo and Toledo-cis were grown in suspension; the cultures were renewed every 3–4 days. The Toledo cell line was kindly provided by Prof. Piotr Smolewski from the Department of Experimental Hematology, Medical University of Lodz, ul Ciołkowskiego 2, 93–510 Łódź, Poland, on the conditions of collaboration. […]
(§3) The cancer cells were seeded in 24-well plates, with 1 mL of cell suspension per well, in the following densities: A2780—10^4 cells/mL; A2780cis—1.5 × 10^4 cells/mL; and Toledo and Toledo-cis—5 × 10^4 cells/mL. […] The absorbance was measured at 540 nm on a Spectrostar Nano spectrophotometer with a microplate reader (BMG Labtech, Ortenberg, Germany). […]

[12] = system: Toledo cells; test: MTT cellular viability assay, Toledo; format: cell-based, human; details: 72 h
Procedure: as §2, §3

[13] = system: panel of cancer cells and human lymphocytes; test: MTT cellular viability assay, all tested cell lines; format: cell-based; details: range over all tested cell lines, 72 h, read-out: IC50 values towards all tested cell lines
Procedure: as §2, §3

[14] = target: T1, human topoisomerase I (Homo sapiens, UniProt P11387); test: Topoisomerase I drug screening (plasmid based), gel electrophoresis; format: biochemical; details: scDNA + topo1; tested compounds 10-20 µM, camptothecin 100 µM
T1 construct: purchased TopoGen, Buena Vista, CO, USA
T1 sequence (P11387 1-765): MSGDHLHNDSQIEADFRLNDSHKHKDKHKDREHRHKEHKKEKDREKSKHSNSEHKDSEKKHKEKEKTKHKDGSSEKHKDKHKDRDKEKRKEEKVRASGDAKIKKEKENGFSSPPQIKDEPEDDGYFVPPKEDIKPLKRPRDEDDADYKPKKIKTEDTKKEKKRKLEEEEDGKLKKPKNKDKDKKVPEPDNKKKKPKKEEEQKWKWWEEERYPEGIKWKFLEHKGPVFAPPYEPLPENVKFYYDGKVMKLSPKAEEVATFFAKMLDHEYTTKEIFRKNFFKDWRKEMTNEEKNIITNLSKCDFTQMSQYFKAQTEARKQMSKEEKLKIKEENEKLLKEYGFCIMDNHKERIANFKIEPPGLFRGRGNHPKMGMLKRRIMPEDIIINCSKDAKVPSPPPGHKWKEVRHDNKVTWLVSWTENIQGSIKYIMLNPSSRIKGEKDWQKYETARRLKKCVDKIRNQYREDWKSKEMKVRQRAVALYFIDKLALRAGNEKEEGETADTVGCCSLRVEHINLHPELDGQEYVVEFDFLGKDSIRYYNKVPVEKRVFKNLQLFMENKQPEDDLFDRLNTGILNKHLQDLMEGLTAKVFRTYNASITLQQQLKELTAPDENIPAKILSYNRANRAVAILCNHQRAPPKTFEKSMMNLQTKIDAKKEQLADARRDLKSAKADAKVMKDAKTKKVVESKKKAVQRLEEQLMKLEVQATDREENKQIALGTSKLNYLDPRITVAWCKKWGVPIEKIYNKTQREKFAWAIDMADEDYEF
Procedure: The test procedure was carried out according to the manufacturer′s instructions (Topoisomerase I Drug Screening Kit(plasmid based) TopoGen/Topoisomerase II Drug Screening Kit (plasmid based) (TopoGen, Buena Vista, CO, USA). A reaction mixture with appropriate concentrations of water and buffer and 1–0.5 mL of DNA (plasmid) was prepared. Then, the tested compounds dissolved in DMSO were added. A solvent control test was also performed. Finally, an enzyme in the indicated amount was added to the mixture. The whole was incubated at 37 °C for 30 min. Then, the reaction was stopped by adding 2 μL of detergent-SDS (sodium dodecyl sulfate). Proteinase K solution (50 μg/mL) was then added and incubated at 37 °C for 15 min. After that time, a loading buffer (bromophenol blue and glycerol) was added to the samples and then applied to a 1% agarose gel. Electrophoresis was carried out in TAE (Tris Acetate-EDTA) buffer, which was obtained by mixing 40 mM Tris Acetate, 1 mM EDTA, and diluting with water. It was carried out for 4–5 h at 2 V/cm. For the Topo I assay, two types of gel were prepared: non-EB (Figure 8A) and EB gel (Figure 8B). Non-EB gels were stained with EB (0.5 ug/mL) for 15–30 min and then destained in water or buffer for 15 min prior to photodocumentation. […]

[15] = A2780, MTT, 72 h, reposted from previous paper
[16] = MTT, 72 h, reposted from previous paper

| SMILES | IC50 [1, 15] | IC50 [2] | IC50 [3] | times less toxic for normal lymphocytes in comparison to cisplatin [4] | RF (IC50 Toledo-cis/IC50 Toledo) [5] | IC50 [6, 16] | IC50 [7] | RF (IC50 A2780cis/IC50 A2780) [8] | percentage of Ann-V positive cells [9] | loss of mitochondrial membrane potential [10] | further results |
| --- | --- | --- | --- | --- | --- | --- | --- | --- | --- | --- | --- |
| COC1(c2ccccc2)Oc2ccccc2C(=O)C1=N.COC1(c2ccccc2)Oc2ccccc2C(=O)C1=N.[Cl][Ru][Cl] (stereo not drawn) [134 (2), cis-dichlorobis(3-imino-2-methoxyflavanone)ruthenium(II)] | 2.5 ± 0.2 µM | 3.4 ± 0.3 µM | 2.9 ± 0.2 µM | 3 times | 5.8 | 0.5 ± 0.1 µM | 4.6 ± 0.2 µM | 1.8 |  |  |  |
| CCOC1(c2ccccc2)Oc2ccccc2C(=O)C1=N.CCOC1(c2ccccc2)Oc2ccccc2C(=O)C1=N.[Cl][Ru][Cl] (stereo not drawn) [138 (3), cis-dichlorobis(3-imino-2-ethoxyflavanone)ruthenium(II)] | 1.8 ± 0.1 µM | 1.6 ± 0.1 µM | 2.8 ± 0.1 µM | 7 times | 4.6 | 0.6 ± 0.04 µM | 1.5 ± 0.4 µM | 0.8 |  |  |  |
| N.N.[Cl][Pt][Cl] [Cisplatin (1), cis-diamminedichloroplatinum (II), reference compound] | 0.2 ± 0.1 µM | 0.2 ± 0.1 µM | 8.3 ± 0.6 µM |  | 17 | 0.5 ± 0.07 µM | 16.8 ± 1.5 µM | 84 | did not cause similar changes | much lower influence | IC50 ([1]; A2780, text value): < 1 µM; RF (IC50 Toledo-cis/IC50 Toledo) ([5]; listed as cisplatin): about 17; IC50 [6]: < 1 µM |
| Nc1c(-c2ccccc2)oc2ccccc2c1=O [Ligand, 3-aminoflavone, reference compound] |  |  |  |  |  |  |  |  |  |  | IC50 ([4]; Homo sapiens, Lymphocyte): > 100 µM; IC50 ([11]; Homo sapiens): > 100 µM; IC50 ([5]; Homo sapiens): > 100 µM; IC50 ([8]; Homo sapiens): > 100 µM; IC50 ([12]; Homo sapiens): > 100 µM |
| Nc1c(-c2ccccc2)oc2ccccc2c1=O.Nc1c(-c2ccccc2)oc2ccccc2c1=O.[Cl][Pt][Cl] [TCAP(4), trans-dichlorobis(3-aminoflavone)platinum(II)] |  |  |  | 60 times | 1.4 |  |  | 2.3 | did not cause similar changes | much lower influence | IC50 [13]: 6.5 to 15.1 µM; IC50 [4]: 11.9 ± 0.7 µM; IC50 [11]: 6.5 ± 0.3 µM; IC50 [5]: 12.6 ± 1.2 µM; IC50 [8]: 15.1 ± 0.6 µM; IC50 [12]: 8.8 ± 0.8 µM |
| CC[C@@]1(O)C(=O)OCc2c1cc1n(c2=O)Cc2cc3ccccc3nc2-1 [camptothecin] |  |  |  |  |  |  |  |  |  |  | inhibition of topoisomerase I / DNA band pattern [14]: presence of open circular DNA |

— publication PMC8306828 (International Journal of Molecular Sciences, 2021)
